# In ChEMBL document CHEMBL1201862, “PubChem BioAssay data set” (2004):
#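 Interpolation was linear, between the two tested concentrations surrounding the appropriate level; five concentrations were tested over 48 hours in 96-well plates. GI50 marks 50% less growth.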 Active and inactive are the calls of the source. No stated cut-off is given here; in the data, active = GI50 up to about 1.1 µM and inactive = higher.
# What was measured:
# Assay in all cases: NCI-60 cell line screen, 48 h
# LOX IMVI = tested on: LOX IMVI
# MDA-N = tested on: MDA-N
# UACC-62 = tested on: UACC-62
# EKVX = tested on: EKVX
# SNB-75 = tested on: SNB-75
# NCI-H23 = tested on: NCI-H23
# HT-29 = tested on: HT-29
# CCRF-CEM = tested on: CCRF-CEM
# SK-MEL-28 = tested on: SK-MEL-28
# MDA-MB-231 = tested on: MDA-MB-231
# OVCAR-8 = tested on: OVCAR-8
# T47D = tested on: T47D
# SF-295 = tested on: SF-295
# NCI/ADR-RES = tested on: NCI/ADR-RES
# SR = tested on: SR
# ACHN = tested on: ACHN
# NCI-H226 = tested on: NCI-H226
# IGROV-1 = tested on: IGROV-1
# SN12C = tested on: SN12C
# UO-31 = tested on: UO-31
# SF-539 = tested on: SF-539
# CAKI-1 = tested on: CAKI-1
# SK-OV-3 = tested on: SK-OV-3
# SNB-19 = tested on: SNB-19
# COLO 205 = tested on: COLO 205
# RPMI-8226 = tested on: RPMI-8226
# M14 = tested on: M14
# HCC 2998 = tested on: HCC 2998
# OVCAR-5 = tested on: OVCAR-5
# 786-0 = tested on: 786-0
# MCF7 = tested on: MCF7
# HCT-116 = tested on: HCT-116
# A498 = tested on: A498
# HL-60 = tested on: HL-60
# U-251 = tested on: U-251
# KM12 = tested on: KM12
# SF-268 = tested on: SF-268
# OVCAR-3 = tested on: OVCAR-3
# HOP-62 = tested on: HOP-62
# A549 = tested on: A549
# MOLT-4 = tested on: MOLT-4
# Hs-578T = tested on: Hs-578T
# K562 = tested on: K562
# SK-MEL-5 = tested on: SK-MEL-5
# Malme-3M = tested on: Malme-3M
# RXF 393 = tested on: RXF 393
# OVCAR-4 = tested on: OVCAR-4
# MDA-MB-435 = tested on: MDA-MB-435
# PC-3 = tested on: PC-3
# HOP-92 = tested on: HOP-92
# TK-10 = tested on: TK-10
# SW-620 = tested on: SW-620
# BT-549 = tested on: BT-549
# NCI-H460 = tested on: NCI-H460
# SK-MEL-2 = tested on: SK-MEL-2
# UACC-257 = tested on: UACC-257
# DU-145 = tested on: DU-145
# HCT-15 = tested on: HCT-15
# NCI-H522 = tested on: NCI-H522
smiles,measurement,setting,value
N=C(N)NS(=O)(=O)c1ccc(N/N=C2/CCOC2=O)cc1,GI50,LOX IMVI,> 100 µM (inactive)
same,GI50,MDA-N,> 100 µM (inactive)
same,GI50,UACC-62,> 100 µM (inactive)
same,GI50,EKVX,> 100 µM (inactive)
same,GI50,SNB-75,21.7 µM (inactive)
same,GI50,NCI-H23,> 100 µM (inactive)
same,GI50,HT-29,> 100 µM (inactive)
same,GI50,CCRF-CEM,> 100 µM (inactive)
same,GI50,SK-MEL-28,> 100 µM (inactive)
same,GI50,MDA-MB-231,> 100 µM (inactive)
same,GI50,OVCAR-8,49.5 µM (inactive)
same,GI50,T47D,49.1 µM (inactive)
same,GI50,SF-295,49.7 µM (inactive)
same,GI50,NCI/ADR-RES,> 100 µM (inactive)
same,GI50,SR,70.6 µM (inactive)
same,GI50,ACHN,63.5 µM (inactive)
same,GI50,NCI-H226,> 100 µM (inactive)
same,GI50,IGROV-1,> 100 µM (inactive)
same,GI50,SN12C,65.5 µM (inactive)
same,GI50,UO-31,> 100 µM (inactive)
same,GI50,SF-539,> 100 µM (inactive)
same,GI50,CAKI-1,> 100 µM (inactive)
same,GI50,SK-OV-3,40.6 µM (inactive)
same,GI50,SNB-19,> 100 µM (inactive)
same,GI50,COLO 205,> 100 µM (inactive)
same,GI50,RPMI-8226,> 100 µM (inactive)
same,GI50,M14,> 100 µM (inactive)
same,GI50,HCC 2998,> 100 µM (inactive)
same,GI50,OVCAR-5,> 100 µM (inactive)
same,GI50,786-0,> 100 µM (inactive)
same,GI50,MCF7,> 100 µM (inactive)
same,GI50,HCT-116,> 100 µM (inactive)
same,GI50,A498,> 100 µM (inactive)
same,GI50,HL-60,> 100 µM (inactive)
same,GI50,U-251,41.2 µM (inactive)
same,GI50,KM12,> 100 µM (inactive)
same,GI50,SF-268,45.1 µM (inactive)
same,GI50,OVCAR-3,> 100 µM (inactive)
same,GI50,HOP-62,26.6 µM (inactive)
same,GI50,A549,> 100 µM (inactive)
same,GI50,MOLT-4,2.95 µM (inactive)
same,GI50,Hs-578T,57.8 µM (inactive)
same,GI50,K562,45.3 µM (inactive)
same,GI50,SK-MEL-5,> 100 µM (inactive)
same,GI50,Malme-3M,> 100 µM (inactive)
same,GI50,RXF 393,> 100 µM (inactive)
same,GI50,OVCAR-4,> 100 µM (inactive)
same,GI50,MDA-MB-435,> 100 µM (inactive)
same,GI50,PC-3,80.4 µM (inactive)
same,GI50,HOP-92,63.2 µM (inactive)
same,GI50,TK-10,> 100 µM (inactive)
same,GI50,SW-620,> 100 µM (inactive)
same,GI50,BT-549,> 100 µM (inactive)
same,GI50,NCI-H460,> 100 µM (inactive)
same,GI50,SK-MEL-2,> 100 µM (inactive)
same,GI50,UACC-257,> 100 µM (inactive)
same,GI50,DU-145,> 100 µM (inactive)
same,GI50,HCT-15,> 100 µM
CCOC(=O)N1CC2(C(=O)OC)C=CC1C(C(=O)OC)C2 (stereo not drawn),GI50,LOX IMVI,> 100 µM (inactive)
same,GI50,MDA-N,> 100 µM (inactive)
same,GI50,UACC-62,> 100 µM (inactive)
same,GI50,EKVX,> 100 µM (inactive)
same,GI50,SNB-75,> 100 µM (inactive)
same,GI50,NCI-H23,> 100 µM (inactive)
same,GI50,CCRF-CEM,> 100 µM (inactive)
same,GI50,SK-MEL-28,> 100 µM (inactive)
same,GI50,MDA-MB-231,> 100 µM (inactive)
same,GI50,OVCAR-8,> 100 µM (inactive)
same,GI50,T47D,> 100 µM (inactive)
same,GI50,SF-295,> 100 µM (inactive)
same,GI50,NCI/ADR-RES,> 100 µM (inactive)
same,GI50,SR,> 100 µM (inactive)
same,GI50,ACHN,> 100 µM (inactive)
same,GI50,NCI-H226,> 100 µM (inactive)
same,GI50,IGROV-1,> 100 µM (inactive)
same,GI50,SN12C,> 100 µM (inactive)
same,GI50,UO-31,> 100 µM (inactive)
same,GI50,SF-539,> 100 µM (inactive)
same,GI50,CAKI-1,> 100 µM (inactive)
same,GI50,SK-OV-3,> 100 µM (inactive)
same,GI50,SNB-19,> 100 µM (inactive)
same,GI50,COLO 205,> 100 µM (inactive)
same,GI50,RPMI-8226,> 100 µM (inactive)
same,GI50,M14,> 100 µM (inactive)
same,GI50,HCC 2998,> 100 µM (inactive)
same,GI50,OVCAR-5,> 100 µM (inactive)
same,GI50,786-0,> 100 µM (inactive)
same,GI50,MCF7,> 100 µM (inactive)
same,GI50,HCT-116,> 100 µM (inactive)
same,GI50,A498,> 100 µM (inactive)
same,GI50,HL-60,> 100 µM (inactive)
same,GI50,U-251,> 100 µM (inactive)
same,GI50,KM12,> 100 µM (inactive)
same,GI50,SF-268,> 100 µM (inactive)
same,GI50,OVCAR-3,> 100 µM (inactive)
same,GI50,HOP-62,> 100 µM (inactive)
same,GI50,A549,> 100 µM (inactive)
same,GI50,MOLT-4,> 100 µM (inactive)
same,GI50,Hs-578T,> 100 µM (inactive)
same,GI50,K562,> 100 µM (inactive)
same,GI50,SK-MEL-5,> 100 µM (inactive)
same,GI50,Malme-3M,> 100 µM (inactive)
same,GI50,RXF 393,> 100 µM (inactive)
same,GI50,OVCAR-4,> 100 µM (inactive)
same,GI50,MDA-MB-435,> 100 µM (inactive)
same,GI50,PC-3,> 100 µM (inactive)
same,GI50,TK-10,> 100 µM (inactive)
same,GI50,SW-620,> 100 µM (inactive)
same,GI50,BT-549,> 100 µM (inactive)
same,GI50,NCI-H460,> 100 µM (inactive)
same,GI50,NCI-H522,> 100 µM (inactive)
same,GI50,SK-MEL-2,> 100 µM (inactive)
same,GI50,UACC-257,> 100 µM (inactive)
same,GI50,DU-145,> 100 µM (inactive)
same,GI50,HCT-15,> 100 µM
CCCCn1c2c(n(CCCC)c1=S)-c1c(n(CCCC)c(=S)n1CCCC)S[Se][Se]S2,GI50,LOX IMVI,6.05 µM (inactive)
same,GI50,MDA-N,8.83 µM (inactive)
same,GI50,UACC-62,5.58 µM (inactive)
same,GI50,EKVX,6.01 µM (inactive)
same,GI50,SNB-75,5.13 µM (inactive)
same,GI50,NCI-H23,13.2 µM (inactive)
same,GI50,HT-29,7.23 µM (inactive)
same,GI50,CCRF-CEM,0.26 µM (active)
same,GI50,SK-MEL-28,16.6 µM (inactive)
same,GI50,MDA-MB-231,2.33 µM (inactive)
same,GI50,OVCAR-8,4.16 µM (inactive)
same,GI50,T47D,0.294 µM (active)
same,GI50,SF-295,3.51 µM (inactive)
same,GI50,NCI/ADR-RES,21.1 µM (inactive)
same,GI50,SR,5.19 µM (inactive)
same,GI50,ACHN,2.67 µM (inactive)
same,GI50,NCI-H226,14.6 µM (inactive)
same,GI50,IGROV-1,2.42 µM (inactive)
same,GI50,SN12C,7.11 µM (inactive)
same,GI50,UO-31,2.5 µM (inactive)
same,GI50,SF-539,3.81 µM (inactive)
same,GI50,CAKI-1,1.62 µM (inactive)
same,GI50,SK-OV-3,22 µM (inactive)
same,GI50,SNB-19,5.42 µM (inactive)
same,GI50,COLO 205,1.62 µM (inactive)
same,GI50,RPMI-8226,2.49 µM (inactive)
same,GI50,M14,8.59 µM (inactive)
same,GI50,HCC 2998,23.6 µM (inactive)
same,GI50,OVCAR-5,2.17 µM (inactive)
same,GI50,786-0,4.62 µM (inactive)
same,GI50,MCF7,6.64 µM (inactive)
same,GI50,HCT-116,4.27 µM (inactive)
same,GI50,A498,38.7 µM (inactive)
same,GI50,U-251,4.37 µM (inactive)
same,GI50,KM12,18.7 µM (inactive)
same,GI50,SF-268,7.13 µM (inactive)
same,GI50,OVCAR-3,0.931 µM (active)
same,GI50,HOP-62,8.83 µM (inactive)
same,GI50,A549,19.7 µM (inactive)
same,GI50,MOLT-4,2.87 µM (inactive)
same,GI50,Hs-578T,5.25 µM (inactive)
same,GI50,K562,1.63 µM (inactive)
same,GI50,SK-MEL-5,5.85 µM (inactive)
same,GI50,Malme-3M,0.625 µM (active)
same,GI50,RXF 393,3.96 µM (inactive)
same,GI50,OVCAR-4,0.815 µM (active)
same,GI50,MDA-MB-435,4.95 µM (inactive)
same,GI50,PC-3,2.26 µM (inactive)
same,GI50,HOP-92,0.942 µM (active)
same,GI50,TK-10,4.42 µM (inactive)
same,GI50,SW-620,0.778 µM (active)
same,GI50,BT-549,4.55 µM (inactive)
same,GI50,NCI-H460,9.95 µM (inactive)
same,GI50,NCI-H522,0.171 µM (active)
same,GI50,SK-MEL-2,8.75 µM (inactive)
same,GI50,UACC-257,8.87 µM (inactive)
same,GI50,DU-145,16.9 µM (inactive)
same,GI50,HCT-15,2.94 µM
